Literature values, collected in patent US7354941B2, “Nicotinamide benzofused-heterocyclyl derivatives useful as selective inhibitors of PDE4 isozymes” (Pfizer Products Inc., priority 2000, dated 2008).
pIC50: −log10 of the molar value. Where two headings read alike, the source gives them in different places.

Columns and labels:
[1] = standard in vitro guinea-pig models of asthma; cited from earlier work
[2] = test system: high-affinity rolipram binding site (Sr); details: cited from earlier work
catalytic site (Sc) = details: compared with SB-207,499; cited from earlier work
[3] = test system: patients with bronchial asthma; details: cited from earlier work
canine tracheal PDE4 = details: at 100 nM; cited from earlier work
bronchitis = details: in vivo; cited from earlier work
[4] = test system: early phase bronchoconstriction; details: in vivo; cited from earlier work
TNFproduction = details: read-out: IC50, TNF production; cited from earlier work
PDE4 = details: cited from earlier work
[5] = test system: human peripheral blood mononuclear cells (HPBM); details: normal patients and subjects with atopic dermatitis; cited from earlier work
bone loss = details: serial oral administrations; cited from earlier work
[6] = test system: lipopolysaccharide-induced mesenteric blood flow fall; details: dog, in vivo; cited from earlier work
[7] = test system: lipopolysaccharide-induced bowel erythrocyte extravasation; details: cited from earlier work; for lipopolysaccharide-induced bowel erythrocyte extravasation: pretreatment i.p. 3×, rats; for lipopolysaccharide induced erythrocyte extravasation in rats and intestinal hypoperfusion in dogs: rat, in vivo
bone marrow culture = details: cited from earlier work
[8] = test system: LPS-stimulated ex vivo TNF release and PHA induced lymphocyte proliferation; details: oral dose of 300 mg; cited from earlier work
[9] = test system: antigen-induced bronchoconstriction; details: guinea-pig; cited from earlier work
guinea-pig lung PDE4 = details: cited from earlier work
[10] = test system: PDE4 derived from tumor cells; details: cited from earlier work
tumor cells = details: cited from earlier work
colitis = details: rat; cited from earlier work
[11] = test system: isolated pulmonary artery rings; details: rings from normal rats and rats with hypoxia-induced pulmonary hypertension; cited from earlier work
[12] = test system: collagen II induced arthritis; details: cited from earlier work
[13] = test system: T-cell mediated hepatic failure; details: cited from earlier work
PBMC = details: cited from earlier work
[14] = test system: chronic relapsing experimental allergic encephalomyelitis; details: SJL mice; cited from earlier work
[15] = test system: experimental allergic encephalomyelitis; details: marmoset; cited from earlier work
[16] = test system: croton oil-induced ear inflammation; details: mouse; cited from earlier work
[17] = rat; cited from earlier work
[18] = test system: antigen-induced eosinophilia; details: rat; cited from earlier work
[19] = rat; cited from earlier work; remark: listed apart in the source
PDE4 in U937 cells = details: cited from earlier work
[20] = 54 subjects, doses up to 400 mg; cited from earlier work

## O=C(Nc1c(Cl)cncc1Cl)c1ccc(OC(F)F)c(OCC2CC2)c1 [Roflumilast]
[1]
  pIC50: 8.46

## COc1ccc([C@H](Cc2ccncc2)c2ccccc2)cc1OC1CCCC1 [CDP840]
[2]
  affinity at the Sr: comparatively low affinity at the Sr
Catalytic site (Sc)
  potency at the Sc: significantly higher potency at the Sc than does SB-207,499
[3]; 9.5 days oral, 15 and 30 mg
  late reactions to inhaled allergen: suppression of late reactions to inhaled allergen
[3]; human, in vivo
  adverse events of nausea or headache: without any adverse events of nausea or headache
  late-phase response in the treatment of asthma: significant inhibition of late-phase response

## COc1ccc(C(=O)Cc2c(Cl)c[n+]([O-])cc2Cl)c2c1OCCCCO2 [(0.0.49)]
Canine tracheal PDE4
  inhibition of canine tracheal PDE4: almost complete inhibition

## Cc1c[n+]([O-])ccc1CC(c1ccc(C(O)(C(F)(F)F)C(F)(F)F)cc1)c1ccc(OC(F)F)c(OC(F)F)c1 [L-826,141]
bronchitis
  activity in a rat model of bronchitis: activity

## CCOc1cc2cc(CO)c(CO)c(-c3ccn(CCOC)c(=O)c3)c2cc1OCC [Example T-440]
[4]
  inhibition of early and late phase bronchoconstriction, BAL eosinophilia, ozone-induced AHR and airway epithelial injury: activity

## COc1ccc(C(CC(N)=O)N2C(=O)c3ccccc3C2=O)cc1OC1CCCC1 (centres unmarked) [(0.0.32)]
TNFproduction
  pIC50: 6.89
PDE4
  pIC50: 10.38

## CCCCn1c(=O)c2c(ncn2CC(C)=O)n(CCCC)c1=O [denbufylline]
[5]
  inhibition of the proliferation of HPBM: concentration-related inhibition
Bone loss
  bone mineral density of femurs: inhibit the decrease in the bone mineral density of femurs
[6]
  potency relative to pentoxifylline in inhibiting mesenteric blood flow fall: 100 fold
[7]
  lipopolysaccharide-induced bowel erythrocyte extravasation: reduces lipopolysaccharide-induced bowel erythrocyte extravasation
  lipopolysaccharide induced erythrocyte extravasation in rats and intestinal hypoperfusion in dogs: attenuated
Bone marrow culture
  mineralized nodules and osteoclast-like cells: increase in the number of mineralized nodules and a decrease in the number of osteoclast-like cells

## CCNc1ncn(Cc2ccc(OC)c(OC3CCCC3)c2)c2nc(C(C)C)nc1-2 [Example V-11294A]
[8]
  TNF levels and lymphocyte proliferation: effective in reducing TNF levels and lymphocyte proliferation
[9]
  inhibition of antigen-induced bronchoconstriction: active

## CCOc1cc2cc(CO)c(CO)c(-c3ccnc(-n4nc(-c5cccnc5)c5ccccc5c4=O)c3)c2cc1OCC [Example T-2585]
guinea-pig lung PDE4
  pIC50: 9.89

## Clc1nc2c(N3CCCC3)nc(N3CCNCC3)nc2nc1NCc1ccccc1 [(0.0.55)]
[10]
  pIC50: 7.80
Tumor cells
  growth of tumor cells: inhibit the growth of tumor cells at micromolar concentrations

## COc1ccc(C2CNC(=O)C2)cc1OC1CCCC1 (centres unmarked) [rolipram]
colitis
  effects in dextran sulfate induced colitis model: beneficial effects comparable to prednisolone
[11]
  relaxant activities of isoproterenol and forskolin: potentiates the relaxant activities of isoproterenol and forskolin
[5]
  inhibition of the proliferation of HPBM: concentration-related inhibition
[12]; 2 mg/kg twice daily for five days before the onset of arthritis
  appearance of arthritic symptoms: significantly delayed the appearance of arthritic symptoms
[12]; 3 mg/kg twice daily when arthritis was apparent
  development of the disease, arthritis severity: progression of severity was halted
[12]; rat, in vivo
  TNF-α and IFN mRNA expression in regional lymph nodes: strong down-regulation of TNF-α and IFN7 mRNA expression
[13]; 0.1 to 10 mg/kg i.p. 30 minutes before challenge
  plasma TNF-α and INF-γ concentrations: significantly reduce plasma TNF-α and INF-γ concentrations
[13]; 0.1 to 10 mg/kg i.p.
  IL-10 levels: significantly elevates IL-10 levels
  plasma activities of ALT, AST, and SDH: dose-dependently inhibited
[13]; mouse, in vivo
  concanavalin A-induced IL4 release: suppress concanavalin A-induced IL4 release
PBMC; PHA stimulated atopic dermatitis PBMC proliferation
  pIC50: 6.55
PBMC; PHA stimulated normal PBMC proliferation
  pIC50: 5.59
[7]
  lipopolysaccharide-induced bowel erythrocyte extravasation: reduces lipopolysaccharide-induced bowel erythrocyte extravasation
  lipopolysaccharide induced erythrocyte extravasation in rats and intestinal hypoperfusion in dogs: attenuated
[14]
  clinical signs and pathological changes: ameliorates clinical signs and pathological changes
[15]
  clinical signs and MRI abnormalities: suppress the appearance of clinical signs and abolish abnormalities in MRI imaging
[16]
  topical doses inhibiting croton oil-induced ear inflammation (as low as): 0.03 mg per ear

## Cc1cc2c3c(c1)C(c1ccccc1)=N[C@@H](NC(=O)c1ccncc1)C(=O)N3CC2 [CI-1018]
[17]
  ED50, oral potency: 5 mg/kg
[18]
  inhibition of antigen-induced eosinophilia: active
[19]
  oral bioavailability: 57%
PDE4 in U937 cells
  pIC50: 5.96
[20]
  adverse events: no adverse events were reported
